{"source": "patent US20240133884A1", "about": "“COMPOSITIONS AND METHODS FOR DETECTING TRYPANOSOMA CRUZI INFECTION” (University of Georgia Research Foundation, Inc., priority 2022, published 2024)", "type_in_all_cases": "cell-based, Trypanosoma cruzi", "key": {"T. cruzi isolates": {"tested_on": "T. cruzi isolates", "assay": "In vitro potency of AN14353 for a range of T. cruzi isolates of different genetic lineages (DTUs)", "description": "The in vitro anti-T. cruzi amastiogote activity assay was performed and optimized based on the protocol described previously (Canavaci, et al., PLoS neglected tropical diseases 4, e740 (2010)). The change in tdTomato fluorescence intensity was determined as a measurement of growth over 72 hours of culture. For assaying drug effects on extracellular amastigotes, trypomastigotes were collected from infected Vero cell cultures and converted in acidic media as previously described (Tomlinson, et al., Parasitology 110 (Pt 5), 547-554 (1995)). Amastigotes (50,000/well) were incubated with 2-fold serial dilutions of compounds for 48 hours. The ATP production was used as an indication of growth in this case, and was measured by ATPlite Luminescence ATP Detection Assay System (PerkinElmer). Both fluorescence and luminescence were read using a BioTek Synergy Hybrid Multi-Mode reader equipped with the software Gene5 v 2.0 (BioTek). The dose-response curve was generated by […] analysis with GraphPad Prism v9.4.0 (GraphPad Software). IC50 was determined as the drug concentration that was required to inhibit 50% of growth compared to that of parasites with no drug exposure. […]"}, "[1]": {"tested_on": "T. cruzi extracellular amastigotes", "assay": "Extracellular amastigote assay (ATPlite ATP production, 48 hours)", "conditions": "in words", "description": "The in vitro anti-T. cruzi amastiogote activity assay was performed and optimized based on the protocol described previously (Canavaci, et al., PLoS neglected tropical diseases 4, e740 (2010)). The change in tdTomato fluorescence intensity was determined as a measurement of growth over 72 hours of culture. For assaying drug effects on extracellular amastigotes, trypomastigotes were collected from infected Vero cell cultures and converted in acidic media as previously described (Tomlinson, et al., Parasitology 110 (Pt 5), 547-554 (1995)). Amastigotes (50,000/well) were incubated with 2-fold serial dilutions of compounds for 48 hours. The ATP production was used as an indication of growth in this case, and was measured by ATPlite Luminescence ATP Detection Assay System (PerkinElmer). Both fluorescence and luminescence were read using a BioTek Synergy Hybrid Multi-Mode reader equipped with the software Gene5 v 2.0 (BioTek). The dose-response curve was generated by […] analysis with GraphPad Prism v9.4.0 (GraphPad Software). IC50 was determined as the drug concentration that was required to inhibit 50% of growth compared to that of parasites with no drug exposure."}, "T. cruzi mRNA": {"tested_on": "T. cruzi mRNA", "assay": "RNA-Seq of infected Vero cells: parasite mRNA relative to host cell mRNA", "conditions": "as early as 6 hrs after addition (FIG. 5C)", "description": "Vero cells (10^6) were infected with 10^7 CL strain trypomastigotes of T. cruzi for 2 days before treating with either 5 uM benznidazole or 30 nM AN14353. The drug concentration used for treatment was set at 5 times the IC50. Samples were collected at several time points for RNA extraction as previously described (Minning, et al., BMC genomics 10, 370 (2009)). rRNA-depleted RNA library construction and RNA sequencing using Illumina Nextseq 75PE was carried out by Georgia Genomics and Bioinformatics Core (GGBC, University of Georgia, Georgia). Illumina reads with mean quality lower than 30 (Phred Score based) were removed from analysis, then mapped to CL Brener genome (TritrypDB release-33) and African green monkey genome (Osada, et al., DNA Res 21, 673-683 (2014)) using the HiSAT software package v0.1.6^50 with default parameters. The mapping rate was quantified by HTseq v0.6.1 (Anders, et al., Bioinformatics 31, 166-169 (2015))."}}, "data": [{"smiles": "Cc1c(C(=O)N[C@H](C(=O)OCc2ccc(F)c(F)c2)C(C)C)ccc2c1B(O)OC2", "note": "[AN14353]", "values": [{"measurement": "in vitro potency for a range of T. cruzi isolates", "setting": "T. cruzi isolates; in words", "result": "high in vitro potency"}, {"measurement": "IC50", "setting": "T. cruzi isolates; strain 20290, DTU TcI", "result": 3, "unit": "nM"}, {"measurement": "IC90", "setting": "T. cruzi isolates; strain 20290, DTU TcI", "result": 5, "unit": "nM"}, {"measurement": "IC50", "setting": "T. cruzi isolates; strain 20392, DTU TcIV", "result": 5, "unit": "nM"}, {"measurement": "IC90", "setting": "T. cruzi isolates; strain 20392, DTU TcIV", "result": 10, "unit": "nM"}, {"measurement": "IC50", "setting": "T. cruzi isolates; strain ARC0704, DTU TcI", "result": 3, "unit": "nM"}, {"measurement": "IC90", "setting": "T. cruzi isolates; strain ARC0704, DTU TcI", "result": 7, "unit": "nM"}, {"measurement": "IC50", "setting": "T. cruzi isolates; strain CL, DTU TcVI", "result": 6, "unit": "nM"}, {"measurement": "IC90", "setting": "T. cruzi isolates; strain CL, DTU TcVI", "result": 18, "unit": "nM"}, {"measurement": "IC50", "setting": "T. cruzi isolates; strain Colombiana, DTU TcI", "result": 7, "unit": "nM"}, {"measurement": "IC90", "setting": "T. cruzi isolates; strain Colombiana, DTU TcI", "result": 10, "unit": "nM"}, {"measurement": "IC50", "setting": "T. cruzi isolates; strain M5631, DTU TcIII", "result": 1, "unit": "nM"}, {"measurement": "IC90", "setting": "T. cruzi isolates; strain M5631, DTU TcIII", "result": 3, "unit": "nM"}, {"measurement": "IC50", "setting": "T. cruzi isolates; strain Montalvania, DTU TcI", "result": 1, "unit": "nM"}, {"measurement": "IC90", "setting": "T. cruzi isolates; strain Montalvania, DTU TcI", "result": 2, "unit": "nM"}, {"measurement": "IC50", "setting": "T. cruzi isolates; strain Tul8, DTU TcII", "result": 1, "unit": "nM"}, {"measurement": "IC90", "setting": "T. cruzi isolates; strain Tul8, DTU TcII", "result": 2, "unit": "nM"}, {"measurement": "sensitivity of extracellular amastigotes", "setting": "[1]", "result": "high sensitivity"}, {"measurement": "parasite mRNA in T. cruzi-infected host cells", "setting": "T. cruzi mRNA", "result": "marked and continuing reduction in parasite mRNA"}]}]}
